One series has as its system RS4; 11 cells. In words: Test 2: inhibition of cell proliferation, RS4;11. Conditions: for IC50: RS4;11 cells, 7 days, PrestoBlue cell viability. The class given is cell-based. As to the method: (§1) RS4; 11 cells were obtained from American Type Culture Collection (ATCC). […] MOLM-13 cells were separately obtained from DSMZ (Deutsche Sammlung von Mikroorganismen und Zellkulturen GmbH).
(§2) The cells were plated to a 96-well plate in 2000 cells/well, each test compound was added thereto to adjust the final concentration of DMSO to 0.1% of DMSO, and the cells were cultured for 7 days. After the cultivation, the cell viability was calculated with PrestoBlue™ Cell Viability Reagent (Invitrogen, A13261).

A further series has as its system MOLM-13 cells. The experiment in a line: Test 2: inhibition of cell proliferation, MOLM-13. The class given is cell-based. Conditions: 7 days, PrestoBlue cell viability. As to the method: as §1, §2
The target in series [1] is hERG (human Ether-a-go-go Related Gene) (Homo sapiens (Human), UniProt Q12809). In words: Test 4: hERG inhibition (QPatch HT, CHO cells stably expressing hERG). Particulars: for hERG/RS4; 11: hERG IC50 divided by RS4;11 proliferation IC50. Background: Block of hERG is tested as a sign of cardiac risk.
In a further series the test system is MEIS1. In words: Test 3: inhibition of mRNA transcription, MEIS1 in MV4;11 cells. Particulars: for mRNA at 1 μM (% control) MEIS1: MV4;11 cells, 20 to 24 hours, relative to GAPDH; for mRNA transcription inhibition activity: statement in words, MEIS1 and HOXA9, MV4;11 cells. The class given is cell-based. From the text: (§3) MV4; 11 cells were obtained from American Type Culture Collection (ATCC). […] The expression level of each obtained gene (MEIS1 and HOXA9) was fitted with the expression level of mRNA of GAPDH.

The next series has as its system HOXA9. The experiment in a line: Test 3: inhibition of mRNA transcription, HOXA9 in MV4;11 cells. The class given is cell-based. Conditions: 20 to 24 hours, relative to GAPDH.
Description: as §3

[2] abbreviates: read-out: hERG inhibition IC50, hERG current, CHO cells.

Read-outs that look alike come from different tables or passages of the source.

hERG (human Ether-a-go-go Related Gene), sequence (Q12809 whole entry): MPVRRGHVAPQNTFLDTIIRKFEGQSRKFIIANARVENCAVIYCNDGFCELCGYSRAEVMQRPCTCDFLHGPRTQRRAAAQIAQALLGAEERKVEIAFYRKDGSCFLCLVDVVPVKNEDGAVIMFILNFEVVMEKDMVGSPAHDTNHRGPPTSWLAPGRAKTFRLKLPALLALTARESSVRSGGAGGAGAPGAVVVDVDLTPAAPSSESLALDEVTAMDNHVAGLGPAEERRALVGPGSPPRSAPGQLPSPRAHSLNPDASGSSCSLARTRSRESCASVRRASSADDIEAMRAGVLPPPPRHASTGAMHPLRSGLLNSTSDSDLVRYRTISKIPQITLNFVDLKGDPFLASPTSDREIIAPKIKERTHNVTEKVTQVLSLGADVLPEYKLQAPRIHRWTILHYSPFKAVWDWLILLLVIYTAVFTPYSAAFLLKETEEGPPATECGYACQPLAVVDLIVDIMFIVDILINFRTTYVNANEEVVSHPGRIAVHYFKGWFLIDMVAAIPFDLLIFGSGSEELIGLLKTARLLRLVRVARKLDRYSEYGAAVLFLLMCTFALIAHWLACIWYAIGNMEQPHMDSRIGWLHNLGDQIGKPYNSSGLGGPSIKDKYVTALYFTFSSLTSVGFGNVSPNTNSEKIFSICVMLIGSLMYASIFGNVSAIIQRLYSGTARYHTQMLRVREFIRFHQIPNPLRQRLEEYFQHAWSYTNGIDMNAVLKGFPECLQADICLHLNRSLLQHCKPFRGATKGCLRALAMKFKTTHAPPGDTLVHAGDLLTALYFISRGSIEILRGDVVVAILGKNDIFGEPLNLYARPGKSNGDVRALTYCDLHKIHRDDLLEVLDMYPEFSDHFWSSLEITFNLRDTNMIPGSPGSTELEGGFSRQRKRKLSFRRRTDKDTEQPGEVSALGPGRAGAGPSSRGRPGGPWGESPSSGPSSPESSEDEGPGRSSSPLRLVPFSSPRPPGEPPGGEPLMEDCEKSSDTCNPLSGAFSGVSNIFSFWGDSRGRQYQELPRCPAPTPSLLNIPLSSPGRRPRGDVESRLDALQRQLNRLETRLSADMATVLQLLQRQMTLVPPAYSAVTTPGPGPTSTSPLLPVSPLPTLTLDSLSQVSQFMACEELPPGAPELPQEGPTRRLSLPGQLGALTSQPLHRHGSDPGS

A word on the IC50: it is the concentration needed to halve the response being measured. In the case of `CC(C)N(C(=O)c1cc(F)ccc1Oc1cncnc1N1CCC2(CCN(C(=O)[C@H]3N[C@H]4CC[C@@H]3CC4)C2)C1)C(C)C` (stereo partly drawn) [Example 2, 2-[(4-{7-[(1R,3S,4R)-2-Azabicyclo[2.2.2]octane-3-carbonyl]-2,7-diazaspiro[4.4]nonan-2-yl}pyrimidin-5-yl)oxy]-5-fluoro-N,N-di(propan-2-yl)benzamide], the results for the 50% inhibitory concentration (IC50) (in the series with RS4; 11 cells (Homo sapiens); in the series on MOLM-13 cells (Homo sapiens); in series [1]) were 870 nM, 810 nM and 11800 nM, respectively. The “hERG/RS4; 11” value in series [1] worked out at 13.6.

Compound `C=C1C[C@@H]2CC[C@H]1[C@@H](C(=O)N1CCC3(CC1)CN(c1ncncc1Oc1ccc(F)cc1C(=O)N(C(C)C)C(C)C)C3)N2` [Example 6, 5-Fluoro-2-[(4-{7-[(1S,3S,4R)-5-methylidene-2-azabicyclo[2.2.2]octane-3-carbonyl]-2,7-diazaspiro[3.5]nonan-2-yl}pyrimidin-5-yl)oxy]-N,N-di(propan-2-yl)benzamide] gave a 50% inhibitory concentration (IC50) in the series on RS4; 11 cells (Homo sapiens) of 20 nM. This compound displayed an IC50 with MOLM-13 cells (Homo sapiens) of 30 nM. Further, in the series on MEIS1, the “mRNA at 1 μM (% control) MEIS1” value is reported as 15.1 % control and the “mRNA transcription inhibition activity” value was “showed the mRNA transcription inhibition activity”. Further, the “mRNA at 1 μM (% control) HOXA9” value in the series with HOXA9 was determined as 39.3 % control.

`C=C1C[C@@H]2CC[C@H]1[C@@H](C(=O)N1CC3(C1)CN(c1ncncc1Oc1ccc(F)cc1C(=O)N(C(C)C)C(C)C)C3)N2` [Example 7, 5-fluoro-2-[(4-{6-[(1S,3S,4R)-5-methylidene-2-azabicyclo[2.2.2]octane-3-carbonyl]-2,6-diazaspiro[3.3]heptan-2-yl}pyrimidin-5-yl)oxy]-N,N-di(propan-2-yl)benzamide]: the “mRNA transcription inhibition activity” value with MEIS1 was “showed the mRNA transcription inhibition activity”.

Consider `C=C1C[C@H]2CC[C@@H]1N[C@@H]2C(=O)N1CCC2(CC1)CN(c1ncncc1Oc1ccc(F)cc1C(=O)N(C(C)C)C(C)C)C2` [Example 8, 5-fluoro-2-[(4-{7-[(1S,3S,4R)-6-methylidene-2-azabicyclo[2.2.2]octane-3-carbonyl]-2,7-diazaspiro[3.5]nonan-2-yl}pyrimidin-5-yl)oxy]-N,N-di(propan-2-yl)benzamide], for which 90 nM corresponded to half-maximal inhibition in the series with RS4; 11 cells (Homo sapiens) (IC50). Besides, the IC50 in the series on MOLM-13 cells (Homo sapiens) stood at 110 nM. Moreover, the “mRNA at 1 μM (% control) MEIS1” value in the series on MEIS1 is on record as 17.1 % control. The “mRNA at 1 μM (% control) HOXA9” value in the series with HOXA9 turned out to be 40.1 % control. Moreover, in series [1], the half-inhibitory concentration (IC50) stood at 12300 nM; the “gap between RS4; 11 proliferation IC50 and hERG current IC50” value (“gap between RS4” below) is reported as “more than 100 fold”; the “hERG/RS4; 11” value was found to be 137.

In the case of `CC(C)N(C(=O)c1cc(F)ccc1Oc1cncnc1N1CC2(CN(C(=O)[C@H]3NC4CCC3CC4)C2)C1)C(C)C` [Example 11, 2-[(4-{6-[(1R,3S,4R)-2-azabicyclo[2.2.2]octane-3-carbonyl]-2,6-diazaspiro[3.3]heptan-2-yl}pyrimidin-5-yl)oxy]-5-fluoro-N,N-di(propan-2-yl)benzamide], in the series with MEIS1, the “mRNA at 1 μM (% control) MEIS1” value is given as 13.1 % control and the “mRNA transcription inhibition activity” value was “showed the mRNA transcription inhibition activity”. For the same compound, the “mRNA at 1 μM (% control) HOXA9” value in the series with HOXA9 is given as 36.5 % control. In series [1], the “hERG/RS4; 11” value was over 500. Further, the concentration for half-maximal inhibition (IC50) in series [1] (setting [2]) is over 10000 nM.

In turn, `CC(C)N(C(=O)c1cc(F)ccc1Oc1cncnc1N1CC2(CCN(C(=O)[C@H]3N[C@H]4CC[C@@H]3C(=O)C4)CC2)C1)C(C)C` [Example 12, 5-fluoro-2-[(4-{7-[(1S,3S,4S)-5-oxo-2-azabicyclo[2.2.2]octane-3-carbonyl]-2,7-diazaspiro[3.5]nonan-2-yl}pyrimidin-5-yl)oxy]-N,N-di(propan-2-yl)benzamide] had an IC50 in the series on RS4; 11 cells (Homo sapiens) of 250 nM. In the series on MOLM-13 cells (Homo sapiens), this compound returned an IC50 of 250 nM. Moreover, in series [1], the half-inhibitory concentration (IC50) is over 100000 nM; the “gap between RS4” value was “more than 100 fold”; the “hERG/RS4; 11” value was over 400.

Turning to `CC(C)N(C(=O)c1cc(F)ccc1Oc1cncnc1N1CC2(CCN(C(=O)[C@H]3N[C@H]4CC[C@@H]3[C@@H](F)[C@H]4CC3CC3)CC2)C1)C(C)C` [Example 14, 2-[(4-{7-[(1S,3S,4S,5S,6S)-6-(cyclropylmethyl)-5-fluoro-2-azabicyclo[2.2.2]octane-3-carbonyl]-2,7-diazaspiro[3.5]nonan-2-yl}pyrimidin-5-yl)oxy]-5-fluoro-N,N-di(propan-2-yl)benzamide], the concentration for half-maximal inhibition (IC50) in the series on RS4; 11 cells came out at 20 nM; in the series with MOLM-13 cells it was 40 nM; in series [1] (setting [2]) it was 11700 nM. Moreover, in the series on RS4; 11 cells (statement in words, RS4;11 and MOLM-13 cells), the “cell proliferation inhibition activity” value is reported as “potent”. Moreover, in series [1], the “gap between RS4” value was “more than 100 fold”.

As for `CC(C)N(C(=O)c1cc(F)ccc1Oc1cncnc1N1CC2(CN(C(=O)[C@H]3N[C@@H]4CC[C@H]3C4)C2)C1)C(C)C` [Example 15, 2-[(4-{6-[(1R,3S,4S)-2-azabicyclo[2.2.1]heptane-3-carbonyl]-2,6-diazaspiro[3.3]heptan-2-yl}pyrimidin-5-yl)oxy]-5-fluoro-N,N-di(propan-2-yl)benzamide], in series [1], the IC50 was over 100000 nM and the “hERG/RS4; 11” value is reported as over 6250.

`CC(C)N(C(=O)c1cc(F)ccc1Oc1cncnc1N1CC2(CCN(C(=O)[C@H]3N[C@@H]4CC[C@H]3C4)CC2)C1)C(C)C` [Example 16, 2-[(4-{7-[(1R,3S,4S)-2-azabicyclo[2.2.1]heptane-3-carbonyl]-2,7-diazaspiro[3.5]nonan-2-yl}pyrimidin-5-yl)oxy]-5-fluoro-N,N-di(propan-2-yl)benzamide] displayed a half-maximal inhibitory concentration (IC50) in the series with MOLM-13 cells (Homo sapiens) of 40 nM. In series [1], the IC50 is over 100000 nM and the “hERG/RS4; 11” value was over 3571.

`C=C1C[C@@H]2C[C@H]1[C@@H](C(=O)N1CCC3(CC1)CN(c1ncncc1Oc1ccc(F)cc1C(=O)N(C(C)C)C(C)C)C3)N2` [Example 18, 5-fluoro-2-[(4-{7-[(1S,3S,4R)-5-methylidene-2-azabicyclo[2.2.1]heptane-3-carbonyl]-2,7-diazaspiro[3.5]nonan-2-yl}pyrimidin-5-yl)oxy]-N,N-di(propan-2-yl)benzamide] registered a 50% inhibitory concentration (IC50) in the series with MOLM-13 cells (Homo sapiens) of 40 nM. Also, in series [1], it took 46100 nM to reach half-maximal inhibition (IC50) and the “hERG/RS4; 11” value was over 2095.

In the series on RS4; 11 cells (Homo sapiens), `CC(C)N(C(=O)c1cc(F)ccc1Oc1cncnc1N1CC2(CCN(C(=O)[C@H]3N[C@H]4CC[C@@H]3[C@H](F)[C@@H]4CC3CC3)CC2)C1)C(C)C` [Example 19, 2-[(4-{7-[(1S,3S,4S,5R,6R)-6-(cyclopropylmethyl)-5-fluoro-2-azabicyclo[2.2.2]octane-3-carbonyl]-2,7-diazaspiro[3.5]nonan-2-yl}pyrimidin-5-yl)oxy]-5-fluoro-N,N-di(propan-2-yl)benzamide] showed a 50% inhibitory concentration (IC50) of under 10 nM. In the series with MOLM-13 cells (Homo sapiens), this compound displayed an IC50 of under 10 nM. In addition, in series [1], the half-maximal inhibitory concentration (IC50) was determined as 6900 nM; the “gap between RS4” value is listed as “more than 100 fold”; the “hERG/RS4; 11” value was over 690.

On to `[2H]C([2H])=C1C[C@@H]2CC[C@H]1[C@@H](C(=O)N1CCC3(CC1)CN(c1ncncc1Oc1ccc(F)cc1C(=O)N(C(C)C)C(C)C)C3)N2` [Example 20, 5-Fluoro-2-[(4-{7-[(1S,3S,4R)-5-(^2H2)methylidene-2-azabicyclo[2.2.2]octane-3-carbonyl]-2,7-diazaspiro[3.5]nonan-2-yl}pyrimidin-5-yl)oxy]-N,N-di(propan-2-yl)benzamide], for which the IC50 with MOLM-13 cells (Homo sapiens) is under 30 nM.

For the origin of these results see patent publication US10815241B2, “Optically active azabicyclo ring derivative” (priority 2018, dated 2020).
